Where only a bound is given, the exact number is not on record here.

As a reminder, the inhibition is the percentage by which the read-out fell short of the control. Usually EC50 stands for the concentration needed to bring the measured effect to its halfway point.

What all share (assay type): cell-based
The subject of one experiment is SW480 colon cancer cells. Nature of the experiment: Cell viability assay (CellTiter-Blue), four days. The conditions noted are these: Homo sapiens, 96 h; for inhibition at 10 µM: read-out: percent inhibition at 10 μM (given for EC50 of >10 μM); for EC50: CellTiter-Blue cell viability. The method, boiled down: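 SW480 cells (~2×10^3 per well) were exposed to compound for four days at 37 °C/5% CO2, using 8-point 1:3 dilutions from 10 μM to 0.0045 μM in duplicate. Viability was read by resazurin reduction (CellTiter-Blue, ~3 h, Ex 560/Em 590 nm). EC50 came from non-linear regression; above 10 μM, percent inhibition at 10 μM is given.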
In general terms: Alamar Blue is a resazurin reagent that responds to reducing activity.

The test system of experiment [1] is Primary human fibroblasts derived from IPF patients (LL29 cells) treated with TGF-β1. Nature of the experiment: Inhibition of the fibrotic process: αSMA staining in TGF-β1 treated fibroblasts. Conditions: Fibroblast, 96 h, LL29 fibroblasts treated with TGF-β1, 4 days; for inhibition at 10 µM: read-out: percent inhibition in brackets beside EC50 >10 μM. In a few lines:
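LL29 cells plated in F12 with 1% FBS, compounds added as 11-point 1:2 series (10 μM to 1.87 nM, 0.1% DMSO), then TGF-β1 20 ng/mL; 4 days at 37 °C. Fixed, αSMA immunostained, imaged; SYTOX-positive cells excluded. % αSMA-positive cells normalized to TGF-β1 wells; EC50 by non-linear regression, or % inhibition at 10 μM.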

Experiment [2] concerns IL-6 in human monocyte cell line (THP-1 cells). The experiment in a line: IL-6 inhibition in LPS-stimulated THP-1 cells (HTRF). The conditions noted are these: IL-6 in LPS-stimulated THP-1 cells; for EC50: HTRF; for inhibition at 10 µM: read-out: percent inhibition in brackets beside EC50 >10 μM. In a few lines: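 THP-1 cells, serum-reduced (1% FBS) for 24 h, were preincubated with compound (10-point 1:3 series from 10 μM, 0.1% DMSO) for 2 h, then stimulated with 500 ng/mL LPS for 22 h at 37° C. IL-6 was read by HTRF (665/620 nm ratio) and normalized to DMSO. EC50 from four-parameter fit; % inhibition at 10 μM given if EC50 >10 μM.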
In general terms: In TR-FRET formats the signal depends on donor and acceptor labels being close together.

With `c1cc2[nH]c(-c3n[nH]c4ccc(-c5cn[nH]c5)nc34)nc2cn1` [Compound 651, 3-(1H-Imidazo[4,5-c]pyridin-2-yl)-5-(1H-pyrazol-4-yl)-1H-pyrazolo[4,3-b]pyridine], the results for the inhibition at 10 µM (in the experiment with SW480 colon cancer cells; in experiment [1]; in experiment [2]) were 13.5%, 16.4% and 0%, respectively. Besides, the EC50 (in the experiment on SW480 colon cancer cells; in experiment [1]; in experiment [2]) was above 10 µM each time.
As to `O=C(Cc1ccccc1)Nc1cncc(-c2ccc3[nH]nc(-c4nc5c(-c6ccncc6)nccc5[nH]4)c3n2)c1` [Compound 122, 2-phenyl-N-(5-(3-(4-(pyridin-4-yl)-1H-imidazo[4,5-c]pyridin-2-yl)-1H-pyrazolo[4,3-b]pyridin-5-yl)pyridin-3-yl)acetamide], the inhibition at 10 µM in the experiment on SW480 colon cancer cells was 3.2%; in experiment [1], 0%. Moreover, the EC50 was above 10 µM with SW480 colon cancer cells, above 10 µM in experiment [1] and 1.24 µM in experiment [2].
Turning to `CN1CCN(c2nccc3[nH]c(-c4n[nH]c5ccc(-c6cncc(N)c6)nc45)nc23)CC1` [Compound 227, 5-(3-(4-(4-Methylpiperazin-1-yl)-1H-imidazo[4,5-c]pyridin-2-yl)-1H-pyrazolo[4,3-b]pyridin-5-yl)pyridin-3-amine], the inhibition at 10 µM in the experiment on SW480 colon cancer cells amounted to 0%; in experiment [1], 22.5%; in experiment [2], 32.3%. Further, the EC50 (in the experiment with SW480 colon cancer cells; in experiment [1]; in experiment [2]) was above 10 µM in each case.
Turning to `Cc1cn(-c2nccc3[nH]c(-c4n[nH]c5ccc(-c6cncc(CN7CCCC7)c6)nc45)nc23)cn1` [Compound 210, 3-(4-(4-Methyl-1H-imidazol-1-yl)-1H-imidazo[4,5-c]pyridin-2-yl)-5-(5-(pyrrolidin-1-ylmethyl)pyridin-3-yl)-1H-pyrazolo [4,3-b]pyridine], the inhibition at 10 µM in the experiment with SW480 colon cancer cells is 7.2%; in experiment [1] it was 2.9%; in experiment [2], 24.5%. Moreover, the EC50 (in the experiment with SW480 colon cancer cells; in experiment [1]; in experiment [2]) was above 10 µM in each case.
As to `CN(C)c1cncc(-c2ccc3[nH]nc(-c4nc5c(N6CCCCC6)nccc5[nH]4)c3n2)c1` [Compound 175, N,N-Dimethyl-5-(3-(4-(piperidin-1-yl)-1H-imidazo[4,5-c]pyridin-2-yl)-1H-pyrazolo [4,3-b]pyridin-5-yl)pyridin-3-amine], the results for the EC50 (with SW480 colon cancer cells; in experiment [1]; in experiment [2]) were 1.99 µM, 2.4 µM and above 10 µM, respectively. The inhibition at 10 µM in experiment [2] worked out at 0%.
`Fc1ccccc1-c1nccc2[nH]c(-c3n[nH]c4ccc(-c5ccccn5)nc34)nc12` [Compound 84, 3-(4-(2-Fluorophenyl)-1H-imidazo[4,5-c]pyridin-2-yl)-5-(pyridin-2-yl)-1H-pyrazolo[4,3-b]pyridine]: the values for the inhibition at 10 µM (in the experiment on SW480 colon cancer cells; in experiment [1]; in experiment [2]) were 0%, 18.1% and 27.2%, respectively. The EC50 (in the experiment on SW480 colon cancer cells; in experiment [1]; in experiment [2]) was above 10 µM in each case.
Regarding `Cc1ccc(-c2nccc3[nH]c(-c4n[nH]c5ccc(-c6cncc(OC7CCCCC7)c6)nc45)nc23)s1` [Compound 735, 5-(5-(Cyclohexyloxy)pyridin-3-yl)-3-(4-(5-methylthiophen-2-yl)-1H-imidazo[4,5-c]pyridin-2-yl)-1H-pyrazolo[4,3-b]pyridine], the results for the inhibition at 10 µM (with SW480 colon cancer cells; in experiment [2]) were 0% and 18.8%, respectively. Also, the EC50 was above 10 µM in the experiment on SW480 colon cancer cells, 0.958 µM in experiment [1] and above 10 µM in experiment [2].
With `O=C(Nc1cncc(-c2ccc3[nH]nc(-c4nc5c(-c6ccc(Cl)s6)nccc5[nH]4)c3n2)c1)C1CCC1` [Compound 1056, N-(5-(3-(4-(5-Chlorothiophen-2-yl)-1H-imidazo[4,5-c]pyridin-2-yl)-1H-pyrazolo[4,3-b]pyridin-5-yl)pyridin-3-yl)cyclobutanecarboxamide], the EC50 in the experiment with SW480 colon cancer cells was 2.15 µM; in experiment [1] it was 2.24 µM; in experiment [2], above 10 µM. Also, the inhibition at 10 µM in experiment [2] is 0%.
With `CCCC(=O)Nc1cncc(-c2ccc3[nH]nc(-c4nc5c(-c6ccncc6)nccc5[nH]4)c3n2)c1` [Compound 129, N-(5-(3-(4-(Pyridin-4-yl)-1H-imidazo[4,5-c]pyridin-2-yl)-1H-pyrazolo[4,3-b]pyridin-5-yl)pyridin-3-yl)butyramide], the results for the inhibition at 10 µM (in the experiment with SW480 colon cancer cells; in experiment [1]; in experiment [2]) were 0%, 0% and 12.5%, respectively. For the same compound, the EC50 (with SW480 colon cancer cells; in experiment [1]; in experiment [2]) was above 10 µM in each case.
For `CC(C)(C)C(=O)Nc1cncc(-c2ccc3[nH]nc(-c4nc5c(-c6ccc(F)cc6)nccc5[nH]4)c3n2)c1` [Compound 36, N-(5-(3-(4-(4-Fluorophenyl)-1H-imidazo[4,5-c]pyridin-2-yl)-1H-pyrazolo [4,3-b]pyridin-5-yl)pyridin-3-yl)pivalamide], the EC50 with SW480 colon cancer cells is 3.59 µM; in experiment [1] it was 1.28 µM; in experiment [2], above 10 µM. In addition, the inhibition at 10 µM in experiment [2] was found to be 0%.
Take `COc1cccc(-c2nccc3[nH]c(-c4n[nH]c5ccc(-c6cn[nH]c6)nc45)nc23)c1` [Compound 1020, 3-(4-(3-Methoxyphenyl)-1H-imidazo[4,5-c]pyridin-2-yl)-5-(1H-pyrazol-4-yl)-1H-pyrazolo[4,3-b]pyridine]: the inhibition at 10 µM with SW480 colon cancer cells was determined as 6.4%; in experiment [1], 0%; in experiment [2] it was 0%. Besides, the EC50 (in the experiment on SW480 colon cancer cells; in experiment [1]; in experiment [2]) was above 10 µM in each case.
In the case of `O=C(Cc1ccccc1)Nc1cncc(-c2ccc3[nH]nc(-c4nc5cnccc5[nH]4)c3n2)c1` [Compound 262, N-(5-(3-(1H-imidazo[4,5-c]pyridin-2-yl)-1H-pyrazolo[4,3-b]pyridin-5-yl)pyridin-3-yl)-2-phenylacetamide], the inhibition at 10 µM was 2.2% in the experiment on SW480 colon cancer cells, 0% in experiment [1] and 35.4% in experiment [2]. Besides, the EC50 (with SW480 colon cancer cells; in experiment [1]; in experiment [2]) was above 10 µM in each case.
On to `CC(C)C(=O)Nc1cncc(-c2ccc3[nH]nc(-c4nc5c(N6CCN(C)CC6)nccc5[nH]4)c3n2)c1` [Compound 233, N-(5-(3-(4-(4-Methylpiperazin-1-yl)-1H-imidazo[4,5-c]pyridin-2-yl)-1H-pyrazolo[4,3-b]pyridin-5-yl)pyridin-3-yl)isobutyramide], for which the inhibition at 10 µM is 1.6% in the experiment on SW480 colon cancer cells, 2.5% in experiment [1] and 24% in experiment [2]. For the same compound, the EC50 (with SW480 colon cancer cells; in experiment [1]; in experiment [2]) was above 10 µM each time.
Turning to `CCC(=O)Nc1cncc(-c2ccc3[nH]nc(-c4nc5c(-c6cccc(F)c6)nccc5[nH]4)c3n2)c1` [Compound 1, N-(5-(3-(4-(3-Fluorophenyl)-1H-imidazo[4,5-c]pyridin-2-yl)-1H-pyrazolo [4,3-b]pyridin-5-yl)pyridin-3-yl)propionamide], the inhibition at 10 µM with SW480 colon cancer cells was found to be 28%; in experiment [1] it was 0%; in experiment [2], 0%. Besides, the EC50 (with SW480 colon cancer cells; in experiment [1]; in experiment [2]) was above 10 µM throughout.
As for `CCNCc1cncc(-c2ccc3[nH]nc(-c4nc5c(-c6ccccn6)nccc5[nH]4)c3n2)c1` [Compound 146, N-((5-(3-(4-(Pyridin-2-yl)-1H-imidazo[4,5-c]pyridin-2-yl)-1H-pyrazolo[4,3-b]pyridin-5-yl)pyridin-3-yl)methyl)ethanamine], the concentration for a half-maximal effect (EC50) in the experiment on SW480 colon cancer cells is 4.76 µM; in experiment [1], 1.04 µM; in experiment [2], above 10 µM. Further, in experiment [2], the inhibition at 10 µM amounted to 6.7%.
For the compound `Cc1ccncc1-c1ccc2[nH]nc(-c3nc4c(-c5ccncc5)nccc4[nH]3)c2n1` [Compound 117, 5-(4-Methylpyridin-3-yl)-3-(4-(pyridin-4-yl)-1H-imidazo[4,5-c]pyridin-2-yl)-1H-pyrazolo[4,3-b]pyridine], the figures for the inhibition at 10 µM (in the experiment on SW480 colon cancer cells; in experiment [1]; in experiment [2]) were 19.6%, 0% and 33.1%, respectively. For the same compound, the EC50 (with SW480 colon cancer cells; in experiment [1]; in experiment [2]) was above 10 µM throughout.
Regarding `c1ccc(CNCc2cncc(-c3ccc4[nH]nc(-c5nc6c(-c7ccsc7)nccc6[nH]5)c4n3)c2)cc1` [Compound 304, N-Benzyl-1-(5-(3-(4-(thiophen-3-yl)-1H-imidazo[4,5-c]pyridin-2-yl)-1H-pyrazolo [4,3-b]pyridin-5-yl)pyridin-3-yl)methanamine], the EC50 in the experiment on SW480 colon cancer cells was 3.91 µM; in experiment [1], 6.56 µM; in experiment [2], above 10 µM. Moreover, in experiment [2], the inhibition at 10 µM was found to be 0%.

The values above are taken from patent US10195185B2, “3-(1H-imidazo[4,5-C]pyridin-2-yl)-1H-pyrazolo[4,3-B]pyridines and therapeutic uses thereof” (Samumed, LLC, priority 2015, dated 2019).
